Columns and labels:
human TLR4 = target: T1, human TLR4 (Homo sapiens, UniProt O00206+Q9Y6Y9); assay: TLR4/NF-κB reporter cell assay (SEAP), HEK-Blue hTLR4; assay type: cell-based; details: for human TLR4 agonistic activity (in words): AUC normalized to 2B110 as 100%, Figure 1C
T1 construct: host or cells: HEK-Blue hTLR4 (HEK293-derived NF-κB/SEAP reporter cells)
Procedure: (§1) Figure 1 Structure-activity relationship studies in TLR4 agonistic pyrimidoindoles. (A) Syntheses of C8-alkynyl and C8-alkyl analogs. (B) Syntheses of C8-aryl analogs. (C) Scatter plot of hTLR4 and mTLR4 agonistic activity in TLR4-NF-κB HEK reporter cells (HEK-Blue™ hTLR4 and HEK-Blue™ mTLR4, respectively). NF-κB inducible NF-κB SEAP levels in culture supernatants were measured according to manufacturer's protocol. The TLR4 agonistic potency was evaluated as area under the curve (AUC) calculated for dose response curve using 2-fold serial dilutions from 10 μM, and normalized to the AUC for 2B110 as 100% on both axes. […] The color of each point is based on cell viability in TLR4-NF-κB reporter cells for compounds evaluated at 5 μM concentration. Viability data was normalized to vehicle control (Vehicle OD570−650 = 0.58 ± 0.01). (D) Structures of the lead compounds with differences at C8 substitution highlighted in blue.
(§2) Titration curves of 1Z105 and derivatives were used to assess their potency in stimulating human and mouse TLR4 response using HEK NF-κB reporter cells (HEK-Blue™ hTLR4 and mTLR4, respectively). The areas under the curve for dose response curves relative to vehicle (0.5% DMSO) were normalized to the greatest activity as 100% of 2B110 for both assays (Figure 1C). The compounds were also tested for in vitro toxicity by MTT assay (Figure 1C, Supplementary Figure 1).
(§3) TLR4/NF-κB activation was assessed using HEK-Blue™ hTLR4 and HEK-Blue™ mTLR4 (InvivoGen). The cells were treated with 1Z105 and 2B182C (2-fold serial dilutions starting from 10 μM) for 20 h. NF-κB inducible secreted embryonic alkaline phosphatase (SEAP) protein in the culture supernatant was measured according to manufacturer's protocol. To evaluate cell viability, 0.5 mg/mL 3-[4,5-dimethylthiazol-2-yl]-2,5-dipheyl tetrazolium bromide (MTT, Thermo Fisher Scientific) solution was added to each well and incubated at 37°C. Six hours later, formazan crystals were lysed with lysis buffer (15% SDS and 0.12% 12 N HCl) and the absorbance was measured at 570 nm using 650 nm as a reference with a plate reader (Tecan, Switzerland).

mouse TLR4 = target: T2, mouse TLR4 (Mus musculus, UniProt Q9JHF9+Q9QUK6); assay: TLR4/NF-κB reporter cell assay (SEAP), HEK-Blue mTLR4; assay type: cell-based; details: for murine TLR4 agonistic activity (in words): AUC normalized to 2B110 as 100%, Figure 1C
T2 construct: host or cells: HEK-Blue mTLR4 (HEK293-derived NF-κB/SEAP reporter cells)
T2 sequence (Q9QUK6 26-835): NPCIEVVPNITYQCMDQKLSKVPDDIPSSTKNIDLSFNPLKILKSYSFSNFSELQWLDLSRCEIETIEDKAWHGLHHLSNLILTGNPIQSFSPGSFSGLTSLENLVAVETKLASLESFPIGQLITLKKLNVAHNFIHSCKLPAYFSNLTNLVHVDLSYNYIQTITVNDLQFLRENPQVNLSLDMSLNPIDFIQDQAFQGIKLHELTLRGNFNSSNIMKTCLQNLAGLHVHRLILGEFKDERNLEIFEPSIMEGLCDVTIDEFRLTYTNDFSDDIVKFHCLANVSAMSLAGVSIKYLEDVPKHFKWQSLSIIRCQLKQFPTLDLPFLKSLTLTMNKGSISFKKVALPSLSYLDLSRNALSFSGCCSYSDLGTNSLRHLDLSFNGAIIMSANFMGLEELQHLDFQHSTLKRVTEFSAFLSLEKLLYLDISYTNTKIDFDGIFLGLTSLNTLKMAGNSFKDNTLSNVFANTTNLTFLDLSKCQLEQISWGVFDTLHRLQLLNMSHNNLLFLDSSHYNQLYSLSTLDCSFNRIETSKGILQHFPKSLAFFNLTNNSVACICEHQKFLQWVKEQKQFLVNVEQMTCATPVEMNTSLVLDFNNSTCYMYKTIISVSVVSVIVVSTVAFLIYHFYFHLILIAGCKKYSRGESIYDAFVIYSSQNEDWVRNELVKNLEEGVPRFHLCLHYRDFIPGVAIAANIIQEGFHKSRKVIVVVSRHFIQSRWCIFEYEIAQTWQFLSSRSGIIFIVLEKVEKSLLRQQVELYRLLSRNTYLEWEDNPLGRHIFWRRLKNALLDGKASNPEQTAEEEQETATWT
T2 sequence (Q9JHF9 19-160): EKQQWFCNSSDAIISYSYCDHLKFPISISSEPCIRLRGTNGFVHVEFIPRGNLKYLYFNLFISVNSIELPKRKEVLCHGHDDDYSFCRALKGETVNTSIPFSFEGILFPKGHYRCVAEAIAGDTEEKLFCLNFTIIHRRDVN
Procedure: as §1, §2, §3

[1] = tested on: TLR4-NF-κB reporter cells; assay: MTT cell viability in TLR4-NF-κB reporter cells; assay type: cell-based; details: for toxicity in cell-based MTT assay (in words): viability at 5 μM in Figure 1C, normalized to vehicle
Procedure: as §1, §3

[2] = tested on: HEK-Blue mTLR4 reporter cells; assay: MTT cell viability, murine TLR4 reporter cells; assay type: cell-based; details: concentrations below 10 µM, MTT
Procedure: as §3
Human TLR4 reporter cells Murine TLR4 reporter cells
[Compound] 1 μM 10 [Compound] 1 μM 10
Supplementary Figure 1. Dose response curves for cell viability (toxicity) of lead compounds in human and murine TLR4-NF-κB reporter cells. Cellular toxicity evaluated by MTT assay is presented as % viability normalized to vehicle (0.5% DMSO) as 100%. While 1Z105 had minimal toxicity in both hTLR4 and mTLR4 reporter cells (HEK-BlueTM hTLR4 and HEK-BlueTM mTLR4, […]
(also on this page, place not known: %Relative (Normalized 100%) 101101 viability vehicle as to)

TLR4 = TLR4 activity in HEK NF-κB reporter cells, species not told apart in the text; assay type: cell-based, human and mouse; details: HEK-Blue hTLR4 and mTLR4, Figure 1C
Procedure: as §1, §2, §3

[3] = 2-fold serial dilutions from 10 μM, the value taken as 100% for normalisation

T1 sequence (O00206 24-839): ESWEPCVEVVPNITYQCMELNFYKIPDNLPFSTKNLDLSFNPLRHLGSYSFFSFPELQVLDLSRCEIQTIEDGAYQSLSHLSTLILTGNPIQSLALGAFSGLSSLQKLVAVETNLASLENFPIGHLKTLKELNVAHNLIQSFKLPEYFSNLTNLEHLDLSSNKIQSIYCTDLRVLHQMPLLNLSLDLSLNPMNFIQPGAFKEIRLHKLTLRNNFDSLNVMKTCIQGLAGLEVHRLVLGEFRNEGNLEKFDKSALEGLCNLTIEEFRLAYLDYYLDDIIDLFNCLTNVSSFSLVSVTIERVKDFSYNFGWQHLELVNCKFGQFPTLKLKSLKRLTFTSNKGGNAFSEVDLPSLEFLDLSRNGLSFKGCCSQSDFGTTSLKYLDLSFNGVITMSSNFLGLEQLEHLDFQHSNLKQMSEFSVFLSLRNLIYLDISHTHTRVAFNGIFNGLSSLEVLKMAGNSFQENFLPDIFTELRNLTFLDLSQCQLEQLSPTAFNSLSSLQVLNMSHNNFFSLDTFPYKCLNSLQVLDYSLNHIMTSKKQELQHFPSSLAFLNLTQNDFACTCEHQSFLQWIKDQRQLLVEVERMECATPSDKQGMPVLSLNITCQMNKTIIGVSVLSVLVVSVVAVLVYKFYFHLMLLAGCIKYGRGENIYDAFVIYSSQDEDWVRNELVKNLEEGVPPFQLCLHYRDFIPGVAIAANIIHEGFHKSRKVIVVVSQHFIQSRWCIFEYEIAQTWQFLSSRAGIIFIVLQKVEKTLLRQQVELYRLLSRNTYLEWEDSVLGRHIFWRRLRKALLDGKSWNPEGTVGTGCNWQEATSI
T1 sequence (Q9Y6Y9 17-160 limits assumed): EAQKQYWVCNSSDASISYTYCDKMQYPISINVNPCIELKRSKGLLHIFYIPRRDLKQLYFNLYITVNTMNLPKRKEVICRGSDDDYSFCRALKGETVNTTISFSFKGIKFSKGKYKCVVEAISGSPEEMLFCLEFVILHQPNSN

SMILES	human TLR4 agonistic activity (in words) (human TLR4)	murine TLR4 agonistic activity (in words) (mouse TLR4)	TLR4 activity (species not told apart) (TLR4)	other results
Cn1c2ccc(-c3ccccc3)cc2c2nc(SCC(=O)NC3CCCCC3)n(-c3ccccc3)c(=O)c21 [2B110]	high TLR4 stimulatory potency	high TLR4 stimulatory potency		AUC of dose response curve, hTLR4 reporter cells (human TLR4; [3]): 14.95 ± 1.95; AUC of dose response curve, mTLR4 reporter cells (mouse TLR4; [3]): 28.43 ± 5.49 units; toxicity at 10 µM (in words) ([1]; 10 µM, MTT, Supplementary Figure 1): exhibited toxicity; toxicity in cell-based MTT assay (in words) [1]: slightly higher toxicity in MTT assays than did 2B182C; toxicity at lower concentrations, mTLR4 reporter cells (in words) [2]: more toxic compared to 8s
C#Cc1ccc2c(c1)c1nc(SCC(=O)NC3CCCCC3)n(-c3ccccc3)c(=O)c1n2C [6a]			reduction in TLR4 activity	
CCCC#Cc1ccc2c(c1)c1nc(SCC(=O)NC3CCCCC3)n(-c3ccccc3)c(=O)c1n2C [6b]			highest level of TLR4 activation	
CCCCCC#Cc1ccc2c(c1)c1nc(SCC(=O)NC3CCCCC3)n(-c3ccccc3)c(=O)c1n2C [6c]			reduction in TLR4 activity	
CCCCCCCCCCC#Cc1ccc2c(c1)c1nc(SCC(=O)NC3CCCCC3)n(-c3ccccc3)c(=O)c1n2C [6d]			completely inactive	
CCc1ccc(-c2ccc3c(c2)c2nc(SCC(=O)NC4CCCCC4)n(-c4ccccc4)c(=O)c2n3C)cc1 [8d]			maintaining TLR4 activity	toxicity in cell-based MTT assay (in words) [1]: relatively high toxicity
CCCCc1ccc(-c2ccc3c(c2)c2nc(SCC(=O)NC4CCCCC4)n(-c4ccccc4)c(=O)c2n3C)cc1 [8e]			maintaining TLR4 activity	toxicity in cell-based MTT assay (in words) [1]: relatively high toxicity
Cn1c2ccc(-c3cccc(-c4ccccc4)c3)cc2c2nc(SCC(=O)NC3CCCCC3)n(-c3ccccc3)c(=O)c21 [8f]	dramatic loss of human TLR4 activity			
COc1cccc(-c2ccc3c(c2)c2nc(SCC(=O)NC4CCCCC4)n(-c4ccccc4)c(=O)c2n3C)c1 [8h]	dramatic loss of human TLR4 activity			
Cn1c2ccc(-c3cccc(N)c3)cc2c2nc(SCC(=O)NC3CCCCC3)n(-c3ccccc3)c(=O)c21 [8k]	significant loss	significant loss		
Cn1c2ccc(-c3cccc(C(=O)O)c3)cc2c2nc(SCC(=O)NC3CCCCC3)n(-c3ccccc3)c(=O)c21 [8l]	significant loss	significant loss		
Cn1c2ccc(-c3cccc(O)c3)cc2c2nc(SCC(=O)NC3CCCCC3)n(-c3ccccc3)c(=O)c21 [8m]	significant loss	significant loss		
Cn1c2ccc(-c3cccc(C#N)c3)cc2c2nc(SCC(=O)NC3CCCCC3)n(-c3ccccc3)c(=O)c21 [8n]	less potent than 2B110	retained murine TLR4 activity		
Cn1c2ccc(-c3cccc([N+](=O)[O-])c3)cc2c2nc(SCC(=O)NC3CCCCC3)n(-c3ccccc3)c(=O)c21 [8o]	less potent than 2B110	retained murine TLR4 activity		

Source: paper PMC7318308, “A Novel Synthetic Dual Agonistic Liposomal TLR4/7 Adjuvant Promotes Broad Immune Responses in an Influenza Vaccine With Minimal Reactogenicity” (Frontiers in Immunology, 2020)
